Measured values taken from publication PMC8078842 (PLoS Neglected Tropical Diseases, 2021).

Assays:
Opioid, Non-selective = assay: CNS side effect panel, [^3H]Naloxone; type: binding
[1] = test system: Norepinephrine Transporter; assay: CNS side effect panel, [^3H]Nisoxetine; type: binding; conditions: pentamidine 1.0E^-5 M
Melatonin, Non-selective = assay: CNS side effect panel, [^125I]-2-Iodomelatonin; type: binding; conditions: pentamidine 1.0E^-5 M
[2] = target: Oxidase, MAO-B, Peripheral (Rattus norvegicus, UniProt P19643); assay: CNS side effect panel, [^14C]Phenylethylamine; type: biochemical
Chain of Oxidase, MAO-B, Peripheral (P19643 whole entry): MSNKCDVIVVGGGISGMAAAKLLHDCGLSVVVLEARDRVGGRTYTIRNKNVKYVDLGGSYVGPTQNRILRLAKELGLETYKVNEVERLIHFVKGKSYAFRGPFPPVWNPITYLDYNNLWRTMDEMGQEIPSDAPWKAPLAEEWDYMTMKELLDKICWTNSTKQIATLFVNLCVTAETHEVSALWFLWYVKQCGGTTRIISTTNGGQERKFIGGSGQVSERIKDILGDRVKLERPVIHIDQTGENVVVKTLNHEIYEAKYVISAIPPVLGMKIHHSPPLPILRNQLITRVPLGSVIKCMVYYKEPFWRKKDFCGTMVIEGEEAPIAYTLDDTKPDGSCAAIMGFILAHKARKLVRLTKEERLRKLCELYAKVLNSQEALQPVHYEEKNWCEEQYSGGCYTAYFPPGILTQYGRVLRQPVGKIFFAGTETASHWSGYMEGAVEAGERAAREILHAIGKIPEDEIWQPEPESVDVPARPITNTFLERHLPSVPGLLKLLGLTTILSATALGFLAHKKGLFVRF

[3] = test system: fibrinogen binding to GP11b/IIIa; conditions: Inhibits fibrinogen binding to GP11b/IIIa; cited from earlier work
[4] = Drug release from dialysis cells (Ritger-Peppas model); type: physicochemical; conditions: 10 mM PTI ± 1% Pluronic, water, 37°C
Experimental: The tube was immersed in a 200 mL closed Duran flask which was placed in a water bath at 37°C for the duration of the experiment.
The data was fitted to Ritger-Peppas model.
Where M and M∞ are the cumulative amounts of drug released at time t and at infinite time, respectively; k, the reaction constant, t the time, n, the diffusional exponent describing the type of regime type: n = 1, case II transport, n = 0.5, Fickian diffusion, 0.5<n<1 non-Fickian diffusion.

[5] = test system: Nicotinic, Neuronal (a-BnTx insensitive); assay: CNS side effect panel, [^3H]Epibatidine; type: binding; conditions: pentamidine 1.0E^-5 M

N=C(N)c1ccc(OCCCCCOc2ccc(C(=N)N)cc2)cc1 [Pentamidine, 1,5-bis-4ρ-amidinophenoxypentane]
Ki (Opioid, Non-selective; Opioid, concentration-response): 1410 nM | Percent Inhibition (Opioid, Non-selective; pentamidine 1.0E^-5 M): 76.00% | Percent Inhibition [1]: 21.39% | Percent Inhibition (Melatonin, Non-selective): 23.45% | Ki ([2]; Monoamine oxidase B, concentration-response): 181 nM | Percent Inhibition ([2]; pentamidine 1.0E^-5 M): 99.99% | Affinity [3]: 1.1 µM | reaction constant (k, Ritger-Peppas) [4]: ~0.3 | reaction type (diffusional exponent n, Ritger-Peppas) [4]: ca. 0.5 | Percent Inhibition [5]: 10.87%
